From patent US20200069607A1, “MOUTHWASH FOR TREATING ORAL CANCERS” (THE BOARD OF REGENTS OF THE UNIVERSITY OF TEXAS SYSTEM, priority 2016, published 2020)

How the values were obtained:
Ca127 cells = experiment: Calcium imaging of Ca127 cells; format: cell-based; details: for effect of inhibitor pre-treatment on calcium influx in response to thymol: Ca127 cells, pre-treatment followed by thymol 400 μM
Source text: (§1) FIGS. 6A-D: Calcium imaging of CHO cells overexpressing TRPA1 (FIG. 6A) or TRPV1 (FIG. 6B). Calcium imaging of cancer cell lines, Ca127 (FIG. 6C) and HeLa (FIG. 6D).
(§2) […]. […] […].

HeLa-derived tumors = experiment: HeLa mouse xenograft, intra-tumor injection
cleaved PARP (c-PARP) [1] = experiment: Western blot of cleaved PARP, Ca127 cells; format: cell-based; details: increasing concentrations of thymol
Source text: as §2

TRPA1 = target: T1, TRPA1 (Homo sapiens, UniProt O75762); experiment: Calcium imaging of CHO cells overexpressing TRPA1; format: cell-based
T1 construct: expressed in transfected cells; host or cells: CHO cells
Source text: as §1

[2] = test system: HeLa (Cervical cancer) cells; experiment: Cell viability / proliferation assay, HeLa cells; details: Homo sapiens, 48 h, read-out: IC50, anti-proliferative effect
Ca127-derived tumors = experiment: Ca127 mouse xenograft, intra-tumor injection
Ca127 = experiment: Clonogenic assay, Ca127 cells
Source text: (§3) FIGS. 3A-D: Clonogenic Assay of Ca127 (FIGS. 3A and 3C) and HeLa cells (FIGS. 3B and 3D).

HeLa cells [3] = experiment: Clonogenic assay, HeLa cells
Source text: as §3

Ca127 (OSCC) cells = experiment: Cell viability / proliferation (MTS) assay, Ca127 cells; format: cell-based; details: treated 24 hours, p<0.001, read-out: IC50, anti-proliferative effect
HeLa cells [4] = experiment: Calcium imaging of HeLa cells; format: cell-based; details: negative for TRPA1, thymol treatment
Source text: as §1, §2

[5] = test system: solid tumors (breast, lung, prostate, colon, cervical); experiment: Anti-tumor effects against solid tumors (inventor's data); details: all types of solid tumors (breast, lung, prostate, colon, cervical)
Source text: However head and neck cancer is 90% of squamous cell origin.

TRPV1 = target: T2, TRPV1 (Homo sapiens, UniProt Q8NER1); experiment: Calcium imaging of CHO cells overexpressing TRPV1; format: cell-based
T2 construct: expressed in transfected cells; host or cells: CHO cells
Source text: as §1

cleaved PARP (c-PARP) [6] = experiment: Western blot of cleaved PARP, HeLa cells; format: cell-based; details: increasing concentrations of thymol
Source text: as §2

T1 sequence (O75762 whole entry, species assumed): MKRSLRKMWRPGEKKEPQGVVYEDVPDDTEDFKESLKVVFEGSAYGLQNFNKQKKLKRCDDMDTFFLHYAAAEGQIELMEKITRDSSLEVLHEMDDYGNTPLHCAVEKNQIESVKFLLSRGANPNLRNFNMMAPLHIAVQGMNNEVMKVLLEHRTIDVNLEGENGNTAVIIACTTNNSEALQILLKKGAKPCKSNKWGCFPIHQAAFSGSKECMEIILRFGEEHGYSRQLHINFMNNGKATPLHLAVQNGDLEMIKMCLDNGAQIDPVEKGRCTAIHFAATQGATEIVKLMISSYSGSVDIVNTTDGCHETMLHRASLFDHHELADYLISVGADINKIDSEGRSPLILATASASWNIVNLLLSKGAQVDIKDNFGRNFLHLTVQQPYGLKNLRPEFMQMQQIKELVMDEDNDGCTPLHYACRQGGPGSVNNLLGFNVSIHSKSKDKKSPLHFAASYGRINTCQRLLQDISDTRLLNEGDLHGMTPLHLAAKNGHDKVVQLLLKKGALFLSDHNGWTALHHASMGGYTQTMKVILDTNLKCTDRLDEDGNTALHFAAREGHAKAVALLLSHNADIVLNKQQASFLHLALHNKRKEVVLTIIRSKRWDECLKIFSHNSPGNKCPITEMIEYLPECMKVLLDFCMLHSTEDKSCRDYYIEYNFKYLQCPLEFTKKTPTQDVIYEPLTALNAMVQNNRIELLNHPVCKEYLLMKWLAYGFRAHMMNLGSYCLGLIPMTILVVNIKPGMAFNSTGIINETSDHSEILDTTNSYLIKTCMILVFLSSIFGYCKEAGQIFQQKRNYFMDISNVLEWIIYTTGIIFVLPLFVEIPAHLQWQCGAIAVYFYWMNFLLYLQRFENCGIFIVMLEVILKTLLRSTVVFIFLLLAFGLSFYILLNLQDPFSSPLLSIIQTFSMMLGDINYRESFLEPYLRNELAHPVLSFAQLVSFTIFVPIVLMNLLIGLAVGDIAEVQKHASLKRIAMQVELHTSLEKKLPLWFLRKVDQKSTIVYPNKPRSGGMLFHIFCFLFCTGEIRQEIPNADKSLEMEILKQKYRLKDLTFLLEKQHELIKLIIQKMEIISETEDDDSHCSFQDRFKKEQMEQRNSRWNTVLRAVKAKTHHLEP
T2 sequence (Q8NER1 whole entry, species assumed): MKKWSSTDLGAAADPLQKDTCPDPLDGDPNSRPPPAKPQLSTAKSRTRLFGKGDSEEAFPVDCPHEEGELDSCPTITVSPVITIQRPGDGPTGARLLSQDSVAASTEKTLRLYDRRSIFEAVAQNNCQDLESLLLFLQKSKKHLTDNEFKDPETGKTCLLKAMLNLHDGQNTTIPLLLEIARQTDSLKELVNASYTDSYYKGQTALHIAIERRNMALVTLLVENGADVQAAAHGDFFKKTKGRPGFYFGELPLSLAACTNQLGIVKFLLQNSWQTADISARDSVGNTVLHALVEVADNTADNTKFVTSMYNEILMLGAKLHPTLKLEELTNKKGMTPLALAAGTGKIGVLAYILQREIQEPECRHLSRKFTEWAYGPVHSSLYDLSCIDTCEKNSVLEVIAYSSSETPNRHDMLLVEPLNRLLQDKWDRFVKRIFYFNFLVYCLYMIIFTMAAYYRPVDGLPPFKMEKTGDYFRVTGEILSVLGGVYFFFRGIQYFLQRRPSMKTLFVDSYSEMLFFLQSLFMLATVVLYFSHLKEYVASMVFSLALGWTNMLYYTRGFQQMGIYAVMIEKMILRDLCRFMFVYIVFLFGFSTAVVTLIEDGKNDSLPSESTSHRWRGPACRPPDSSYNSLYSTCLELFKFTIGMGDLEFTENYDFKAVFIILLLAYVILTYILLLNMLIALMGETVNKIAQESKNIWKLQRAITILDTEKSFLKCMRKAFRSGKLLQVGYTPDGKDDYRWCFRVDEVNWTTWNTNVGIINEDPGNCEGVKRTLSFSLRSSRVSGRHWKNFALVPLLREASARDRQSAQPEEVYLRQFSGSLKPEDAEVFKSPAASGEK

| SMILES | effect of inhibitor pre-treatment on calcium influx in response to thymol (Ca127 cells) | median tumor volume (HeLa-derived tumors; Day 26 as printed, thymol 4.3 mM every other day for 22 days, control 900 mm^3) [mm^3] | tumor volume compared to control (HeLa-derived tumors; by day 18, remained through day 22, 4.3 mM intra-tumor every other day, p<0.001) | average tumor volume (HeLa-derived tumors; thymol 4.3 mM intra-tumor every other day for 22 days, control 900 mm^3) [mm^3] | activation of cleaved PARP (apoptosis) (cleaved PARP (c-PARP) [1]) | calcium influx (Ca127 cells; Ca127 cells expressing TRPA1, thymol 400 μM) | TRPA1 channel activation (calcium imaging) (TRPA1) | IC50 [2] [µM] | median tumor volume (Ca127-derived tumors; Day 26, thymol 4.3 mM every other day, control 400 mm^3) [mm^3] | tumor volume compared to control (Ca127-derived tumors; by day 16, 4.3 mM intra-tumor every other day, p<0.001) | average tumor volume (Ca127-derived tumors; thymol 4.3 mM intra-tumor every other day for 26 days, control 400 mm^3) [mm^3] | colony formation (Ca127; Ca127 (FIGS. 3A-D), one minute exposure, 10 days) | colony formation (Ca127; Ca127, single two minute exposure, 4.3 mM, ten days) | colony formation (HeLa cells [3]; HeLa (FIGS. 3A-D), one minute exposure, 10 days) | colony formation (HeLa cells [3]; HeLa, single two minute exposure, 4.3 mM, ten days) | IC50 (Ca127 (OSCC) cells) [µM] | calcium response (HeLa cells [4]) | anti-tumor effects [5] | TRPV1 channel activation (calcium imaging) (TRPV1) | activation of cleaved PARP (apoptosis) (cleaved PARP (c-PARP) [6]) |
| --- | --- | --- | --- | --- | --- | --- | --- | --- | --- | --- | --- | --- | --- | --- | --- | --- | --- | --- | --- | --- |
| CC(C)c1ccc(NC(=O)Cn2cnc3c2c(=O)n(C)c(=O)n3C)cc1 [HC030031] | nearly abolished all calcium influx | – | – | – | – | – | – | – | – | – | – | – | – | – | – | – | – | – | – | – |
| O=C(O)c1ccc(S(=O)(=O)N(Cc2ccc(OC(F)(F)F)cc2)c2ncc(C(F)(F)F)cc2Cl)cc1 [RQ00203078] | reduced calcium influx | – | – | – | – | – | – | – | – | – | – | – | – | – | – | – | – | – | – | – |
| Cc1ccc(C(C)C)c(O)c1 [thymol, 2-isopropyl-5-methylphenol] | – | 500 | significant reduction | 500 | dose-dependent activation | small calcium influx | activates TRPA1 channels | 400 | 100 | significant reduction | 90 | abolished colony formation | abolished colony formation | abolished colony formation | abolished colony formation | 400 | did not respond | anti-tumor effects | not TRPV1 channels | dose-dependent activation |
